Laboratory results from ChEMBL document CHEMBL1201862, “PubChem BioAssay data set” (2004).
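Exposure lasted 48 hours, with cells grown in 96-well plates and compounds tested at five concentrations. Abbreviation: GI50, concentration required for 50% inhibition of growth.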 Calls of active or inactive are those of the source. Rule as the data show it: active = GI50 up to about 1.1 µM and inactive = higher.

What was measured:
Test in all cases: DTP human tumour cell line panel, 48 h
[1] = system: DLD-1
[2] = system: HT-29
[3] = system: KM12
[4] = system: A549
[5] = system: SF-539
[6] = system: NCI-H23
[7] = system: SK-MEL-28
[8] = system: OVCAR-8
[9] = system: NCI-H460
[10] = system: CCRF-CEM
[11] = system: ACHN
[12] = system: HCT-15
[13] = system: DMS-273
[14] = system: SF-268
[15] = system: OVCAR-3
[16] = system: LXFL 529
[17] = system: NCI-H522
[18] = system: 786-0
[19] = system: UO-31
[20] = system: NCI-H226
[21] = system: RPMI-8226
[22] = system: XF498
[23] = system: OVCAR-4
[24] = system: SK-MEL-5
[25] = system: EKVX
[26] = system: SK-OV-3
[27] = system: U-251
[28] = system: M19-MEL
[29] = system: M14
[30] = system: Malme-3M
[31] = system: KM-20L2
[32] = system: A498
[33] = system: SR
[34] = system: RXF 393
[35] = system: SN12C
[36] = system: SW-620
[37] = system: MOLT-4
[38] = system: DMS-114
[39] = system: HCC 2998
[40] = system: SNB-75
[41] = system: COLO 205
[42] = system: SF-295
[43] = system: SK-MEL-2
[44] = system: TK-10
[45] = system: K562
[46] = system: HOP-92
[47] = system: CAKI-1
[48] = system: HL-60
[49] = system: HOP-18
[50] = system: SNB-19
[51] = system: HCT-116
[52] = system: IGROV-1
[53] = system: LOX IMVI
[54] = system: UACC-62
[55] = system: HOP-62
[56] = system: SNB-78
[57] = system: UACC-257

## CC(C)=CCCc1c(C)ccc2c1C(=O)C(=O)C(C(C)C)=C2
[1]
  GI50: 3.48 µM (inactive)
[2]
  GI50: 7.11 µM (inactive)
[3]
  GI50: > 22 µM (inactive)
[4]
  GI50: > 22 µM (inactive)
[5]
  GI50: 4.27 µM (inactive)
[6]
  GI50: 3.94 µM (inactive)
[7]
  GI50: 3.87 µM (inactive)
[8]
  GI50: 3.85 µM (inactive)
[9]
  GI50: 10.7 µM (inactive)
[10]
  GI50: 0.661 µM (active)
[11]
  GI50: 3.8 µM (inactive)
[12]
  GI50: 3.85 µM
[13]
  GI50: 3.97 µM (inactive)
[14]
  GI50: 5.71 µM (inactive)
[15]
  GI50: 3.76 µM (inactive)
[16]
  GI50: 3.62 µM (inactive)
[17]
  GI50: 3.4 µM (inactive)
[18]
  GI50: 3.95 µM (inactive)
[19]
  GI50: 6.98 µM (inactive)
[20]
  GI50: > 22 µM (inactive)
[21]
  GI50: 0.839 µM (active)
[22]
  GI50: 3.77 µM (inactive)
[23]
  GI50: 3.84 µM (inactive)
[24]
  GI50: 20 µM (inactive)
[25]
  GI50: > 22 µM (inactive)
[26]
  GI50: > 22 µM (inactive)
[27]
  GI50: > 22 µM (inactive)
[28]
  GI50: 3.87 µM (inactive)
[29]
  GI50: 4.24 µM (inactive)
[30]
  GI50: 3.73 µM (inactive)
[31]
  GI50: > 22 µM (inactive)
[32]
  GI50: > 22 µM (inactive)
[33]
  GI50: 3.5 µM (inactive)
[34]
  GI50: 3.68 µM (inactive)
[35]
  GI50: 9.06 µM (inactive)
[36]
  GI50: 3.86 µM (inactive)
[37]
  GI50: 1.36 µM (inactive)
[38]
  GI50: 4.2 µM (inactive)
[39]
  GI50: > 22 µM (inactive)
[40]
  GI50: 9.62 µM (inactive)
[41]
  GI50: 7.24 µM (inactive)
[42]
  GI50: > 22 µM (inactive)
[43]
  GI50: 4.1 µM (inactive)
[44]
  GI50: 4.41 µM (inactive)
[45]
  GI50: 3.87 µM (inactive)
[46]
  GI50: 3.26 µM (inactive)
[47]
  GI50: 4.16 µM (inactive)
[48]
  GI50: 1.03 µM (active)
[49]
  GI50: 4.02 µM (inactive)
[50]
  GI50: > 22 µM (inactive)
[51]
  GI50: 3.57 µM (inactive)
[52]
  GI50: 9.84 µM (inactive)

## O=C1CC2C(=O)N(Cc3ccccc3)C1C=C2S(=O)(=O)c1ccccc1 (centres undefined)
[53]
  GI50: > 100 µM (inactive)
[54]
  GI50: > 100 µM (inactive)
[1]
  GI50: > 100 µM (inactive)
[2]
  GI50: > 100 µM (inactive)
[3]
  GI50: > 100 µM (inactive)
[4]
  GI50: > 100 µM (inactive)
[5]
  GI50: > 100 µM (inactive)
[6]
  GI50: > 100 µM (inactive)
[7]
  GI50: > 100 µM (inactive)
[8]
  GI50: > 100 µM (inactive)
[9]
  GI50: > 100 µM (inactive)
[10]
  GI50: > 100 µM (inactive)
[11]
  GI50: > 100 µM (inactive)
[14]
  GI50: > 100 µM (inactive)
[15]
  GI50: > 100 µM (inactive)
[16]
  GI50: > 100 µM (inactive)
[17]
  GI50: > 100 µM (inactive)
[18]
  GI50: > 100 µM (inactive)
[19]
  GI50: > 100 µM (inactive)
[20]
  GI50: > 100 µM (inactive)
[22]
  GI50: > 100 µM (inactive)
[23]
  GI50: > 100 µM (inactive)
[55]
  GI50: > 100 µM (inactive)
[24]
  GI50: > 100 µM (inactive)
[25]
  GI50: > 100 µM (inactive)
[26]
  GI50: > 100 µM (inactive)
[27]
  GI50: > 100 µM (inactive)
[28]
  GI50: > 100 µM (inactive)
[29]
  GI50: > 100 µM (inactive)
[30]
  GI50: > 100 µM (inactive)
[31]
  GI50: > 100 µM (inactive)
[32]
  GI50: > 100 µM (inactive)
[33]
  GI50: > 100 µM (inactive)
[34]
  GI50: > 100 µM (inactive)
[35]
  GI50: > 100 µM (inactive)
[36]
  GI50: > 100 µM (inactive)
[37]
  GI50: > 100 µM (inactive)
[56]
  GI50: > 100 µM (inactive)
[38]
  GI50: > 100 µM (inactive)
[39]
  GI50: > 100 µM (inactive)
[40]
  GI50: > 100 µM (inactive)
[41]
  GI50: > 100 µM (inactive)
[57]
  GI50: > 100 µM (inactive)
[42]
  GI50: > 100 µM (inactive)
[44]
  GI50: > 100 µM (inactive)
[45]
  GI50: > 100 µM (inactive)
[46]
  GI50: > 100 µM (inactive)
[48]
  GI50: > 100 µM (inactive)
[49]
  GI50: > 100 µM (inactive)
[50]
  GI50: > 100 µM (inactive)
[51]
  GI50: > 100 µM (inactive)
[52]
  GI50: > 100 µM (inactive)
